Experiments:
red blood cells (RBCs) [1] = assay: Localisation of biotin to RBC surface by attachment of avidinylated beads (DYNABEADS M-280); type: cell-based
Method: The use of aqueous solutions of the construct designated Biotin-S3-S4-S2-chol (III) and the construct designated Biotin-S3-S4-S5-DOPE (IV) in the localisation of biotin (F) to cell surfaces was also compared. Solutions of the two constructs were prepared at substantially equimolar concentrations. The use of the solutions was assessed across a concentration range from 0 to 500 μM (0.5 mM). A 0.5 mM solution of the construct designated Biotin-S3-S4-S2-chol (III) was prepared by dissolving 0.4 mg of the construct in 514 μL of PBS. […] A 0.5 mM stock solution of the construct designated Biotin-S3-S4-S5-DOPE (IV) was prepared by dissolving 2 mg of the construct in 1942 μL of phosphate buffered saline (PBS). Each 0.5 mM solution was warmed to 37° C. for 10 minutes, vortexed and sonicated for 30 seconds to ensure complete dissolution of the construct in the aqueous medium. A dilution series was prepared for each construct to provide a total volume of 100 μL at each of the following concentrations: […]. Equal volumes (40 μL) of packed, washed red blood cells (RBCs) and solutions of constructs at different concentrations were mixed in a glass kimble tube. […]
(§1) Two equal volumes were taken from each tube and centrifuged (300×g for 2 minutes) to provide two equivalent packed cells volumes for further evaluation. One of each pair of equivalent packed cell volumes was evaluated for localisation of the biofunctional moiety biotin to the surface of the RBCs by conjugation with avidin ALEXAFLUOR™. One of each pair of the equivalent packed cell volumes was evaluated for localisation of the biofunctional moiety biotin to the surface of the RBCs by conjugation to avidinylated beads (DYNABEADS™ M-280).
Conjugation with avidinylated beads (DYNABEADS™ M-280) was performed. […] The attachment of beads to cells was scored at 400× and 800× magnification on a compound microscope. An estimate of the number of beads and the presence of cell clusters was recorded for each group and compared with a negative control.

red blood cells (RBCs) [2] = assay: Localisation of biotin to RBC surface by conjugation with avidin ALEXAFLUOR (fluorescence microscopy); type: cell-based; design: key to fluorescent signal intensity grade: 1 (low); 2 (moderate); 3 (bright); 4 (very bright); conditions: for staining at higher concentrations: 100 and 500 μM; for fluorescent signal intensity grade: constructs at concentrations of 10 and 25 μM, avidin ALEXAFLUOR
Method: (§2) The use of aqueous solutions of the construct designated Biotin-S3-S4-S2-chol (III) and the construct designated Biotin-S3-S4-S5-DOPE (IV) in the localisation of biotin (F) to cell surfaces was also compared. Solutions of the two constructs were prepared at substantially equimolar concentrations. The use of the solutions was assessed across a concentration range from 0 to 500 μM (0.5 mM). A 0.5 mM solution of the construct designated Biotin-S3-S4-S2-chol (III) was prepared by dissolving 0.4 mg of the construct in 514 μL of PBS. […] A 0.5 mM stock solution of the construct designated Biotin-S3-S4-S5-DOPE (IV) was prepared by dissolving 2 mg of the construct in 1942 μL of phosphate buffered saline (PBS). Each 0.5 mM solution was warmed to 37° C. for 10 minutes, vortexed and sonicated for 30 seconds to ensure complete dissolution of the construct in the aqueous medium. A dilution series was prepared for each construct to provide a total volume of 100 μL at each of the following concentrations: […]. Equal volumes (40 μL) of packed, washed red blood cells (RBCs) and solutions of constructs at different concentrations were mixed in a glass kimble tube. The tubes were incubated at 37° C. for 20 minutes in a water bath with periodic (3 x) agitation. The incubated cells were washed 3× with PBS before being resuspended in a cell preservative (CELPRESOL™) for storage at 4° C. overnight.
as §1
Conjugation with avidin ALEXAFLUOR™ was evaluated as described in the publication of Oliver et al (2011). An aliquot containing 0.02 mg avidin ALEXAFLUOR™ was mixed with a volume ([…]) of PBS containing BSA to provide a 0.1 mg/mL solution. Equal volumes 20 μL of packed RBCs and the solution of avidin ALEXAFLUOR™ were mixed and incubated at 37° C. for 30 minutes. The cells were then washed 3× with PBS before placing a drop (10 μL) on a glass microscope slide for fluorescent microscopy (WIB filter at 400× magnification). Cells were graded for fluorescence intensity over two micrograph fields of view. Grades determined via the eye piece were correlated with the corresponding photomicrographs (1.9 sec exposure). Grades were assigned according to the following scale: 1 (low), 2 (moderate), 3 (bright) and 4 (very bright). The morphology of the cells was also recorded (“normal” or “poiked”).

[3] = system: O group red blood cells (RBCs); assay: Serology of kodecytes with monoclonal preparations; type: cell-based; design: scale not given here; conditions: kodecytes prepared at 200 μg/mL construct
Method: The use of aqueous solutions of the construct designated Atri-S1-chol (I), the construct designated Atri-S1-S5-DOPE (V) and the construct designated Atri-S1-S5-S4-S5-DOPE (VI) in the localisation of Atri (F) to cell surfaces was also compared. (The constructs designated Atri-S1-S5-DOPE (V) and […] (VI) (FIG. 11) were prepared according to Bovin et al (2005) and Bovin et al (2009)). Volumes (40 μL) of packed, washed O group red blood cells (RBCs) were resuspended in equal volumes of solutions of each of the three constructs at a concentration of 200 μg/mL in PBS. The resuspended RBCs were incubated at room temperature for 4 hours prior to storage at 4° C. overnight. Serology was performed as described by Bovin et al (2005) using a range of monoclonal preparations and sera.

[4] = Dissolution of construct in PBS; type: physicochemical; conditions: 0.5 mM: 0.4 mg in 514 μL of PBS
Method: as §2, with “The incubated cells were washed 3× with PBS before being resuspended in a cell preservative (CELPRESOL™) for storage at 4° C. overnight.” left out

## CCCCCCCC/C=C\CCCCCCCC(=O)OCC(COP(=O)([O-])OCCNC(=O)CCCCC(=O)NCC(=O)NCC(=O)N(CC(=O)[O-])CC(=O)NCC(=O)NCC(=O)N(CC(=O)[O-])CC(=O)NCCNC(=O)CN(CC(=O)[O-])C(=O)CNC(=O)CNC(=O)CN(CC(=O)[O-])C(=O)CNC(=O)CNC(=O)CCCC[C@@H]1SC[C@@H]2NC(=O)N[C@@H]21)OC(=O)CCCCCCC/C=C\CCCCCCCC.[Na+].[Na+].[Na+].[Na+].[Na+] (stereo partly drawn) [Biotin-S3-S4-S5-DOPE (IV), reference compound]
Red blood cells (RBCs) [1]
  attachment of avidinylated beads, comparison of the two constructs: comparable results
Red blood cells (RBCs) [2]
  staining at higher concentrations: poor staining
  fluorescent signal intensity grade: 2

## CC(=O)NC1C(OC2C(O)C(CO)OC(OCCCNC(=O)OC3CCC4(C)C(=CCC5C4CCC4(C)C(C(C)CCCC(C)C)CCC54)C3)C2OC2OC(C)C(O)C(O)C2O)OC(CO)C(O)C1O (stereo not drawn) [I]
[3]; Anti-A (ABO1) Diagast
  Serology score: 0
[3]; Anti-A ALBAclone
  Serology score: 0
[3]; Anti-A BRG
  Serology score: 0
[3]; Anti-A Biotest
  Serology score: 0
[3]; Anti-A CSL Epiclone
  Serology score: 0
[3]; Anti-A CSL
  Serology score: 0
[3]; Anti-A Diagast
  Serology score: 0
[3]; Anti-A Diagnostics Scotland
  Serology score: 0
[3]; Anti-A Lorne
  Serology score: 0
[3]; Anti-A Ortho-BioClone
  Serology score: 0
[3]; Anti-A Span
  Serology score: 0
[3]; Anti-A ortho
  Serology score: 0
[3]; Anti-A, B CSL
  Serology score: 0
[3]; Anti-A, B Diagast
  Serology score: 0
[3]; Anti-A, B Diagnostics Scotland
  Serology score: 0
[3]; Anti-A/B ALBAclone
  Serology score: 0
[3]; Anti-A/B CSL Epiclone
  Serology score: 0
[3]; Anti-A/B Dominion (Novaclone)
  Serology score: 0
[3]; Anti-B (ABO2) Diagast
  Serology score: 0
[3]; Anti-B ALBAclone
  Serology score: 0
[3]; Anti-B Biotec
  Serology score: 0
[3]; Anti-B CSL Epiclone
  Serology score: 0
[3]; Anti-B CSL
  Serology score: 0
[3]; Anti-B Diagast
  Serology score: 0
[3]; Anti-B Diagnostics Scotland
  Serology score: 0
[3]; Anti-B Dominion (Novaclone)
  Serology score: 0
[3]; Anti-B Gama
  Serology score: 0
[3]; Anti-B Immucor
  Serology score: 0
[3]; Anti-B Millipore
  Serology score: 0
[3]; Anti-B Ortho-BioClone
  Serology score: 0
[3]; Anti-B Ortho-MoltenClone
  Serology score: 0
[3]; Anti-B Span
  Serology score: 0
[3]; Anti-B ortho
  Serology score: 0
[3]; Diagast Anti-A/B (ABO3)
  Serology score: 0

## CCCCCCCCC=CCCCCCCCC(=O)OCC(COP(=O)([O-])OCCNC(=O)CCCCC(=O)NCCCOC1OC(CO)C(O)C(OC2OC(CO)C(O)C(O)C2NC(C)=O)C1OC1OC(C)C(O)C(O)C1O)OC(=O)CCCCCCCC=CCCCCCCCC.[Na+] (stereo not drawn) [V, reference compound]
[3]; Anti-A, B Diagast
  Serology score: 0
[3]; Anti-B (ABO2) Diagast
  Serology score: 0
[3]; Anti-B ALBAclone
  Serology score: 0
[3]; Anti-B Biotec
  Serology score: 0
[3]; Anti-B CSL Epiclone
  Serology score: 0
[3]; Anti-B CSL
  Serology score: 0
[3]; Anti-B Diagast
  Serology score: 0
[3]; Anti-B Diagnostics Scotland
  Serology score: 0
[3]; Anti-B Dominion (Novaclone)
  Serology score: 0
[3]; Anti-B Gama
  Serology score: 0
[3]; Anti-B Immucor
  Serology score: 0
[3]; Anti-B Millipore
  Serology score: 0
[3]; Anti-B Ortho-BioClone
  Serology score: 0
[3]; Anti-B Ortho-MoltenClone
  Serology score: 0
[3]; Anti-B Span
  Serology score: 0
[3]; Anti-B ortho
  Serology score: 0

## CC(C)CCC[C@@H](C)[C@H]1CC[C@H]2[C@@H]3CC=C4C[C@@H](OC(=O)NCCCCC(=O)NCC(=O)NCC(=O)N(CC(=O)[O-])CC(=O)NCC(=O)NCC(=O)N(CC(=O)[O-])CC(=O)NCCNC(=O)CN(CC(=O)[O-])C(=O)CNC(=O)CNC(=O)CN(CC(=O)[O-])C(=O)CNC(=O)CNC(=O)CCCC[C@@H]5SC[C@@H]6NC(=O)N[C@@H]65)CC[C@]4(C)[C@H]3CC[C@]12C.[Na+].[Na+].[Na+].[Na+] [Biotin-S3-S4-S2-chol (III)]
Red blood cells (RBCs) [1]
  attachment of avidinylated beads, comparison of the two constructs: comparable results
Red blood cells (RBCs) [1]; 25 μM construct
  number of beads attached to each RBC and clustering of RBCs into groups, relative to the other construct: slightly greater
[4]
  dissolution in PBS: readily dissolved to provide a clear solution
Red blood cells (RBCs) [2]
  staining at higher concentrations: poor staining
  fluorescent signal intensity grade: 2
Red blood cells (RBCs) [2]; compared with Biotin-S3-S4-S5-DOPE (IV)
  homogeneity of modification of cell surface: more homogenous modification over the entire cell surface and lesser inter-cell variation
Red blood cells (RBCs) [2]; lower concentration ranges (5 to 75 μM)
  fluorescent signal intensity relative to cells prepared using Biotin-S3-S4-S5-DOPE (IV): moderately lower

## CCCCCCCC/C=C\CCCCCCCC(=O)OCC(COP(=O)([O-])OCCNC(=O)CCCCC(=O)NCC(=O)NCC(=O)N(CC(=O)[O-])CC(=O)NCC(=O)NCC(=O)N(CC(=O)[O-])CC(=O)NCCNC(=O)CN(CC(=O)[O-])C(=O)CNC(=O)CNC(=O)CN(CC(=O)[O-])C(=O)CNC(=O)CNC(=O)CCCCC(=O)NCCCO[C@@H]1O[C@H](CO)[C@H](O)[C@H](O[C@H]2O[C@H](CO)[C@H](O)[C@H](O)[C@H]2NC(C)=O)[C@H]1O[C@@H]1O[C@@H](C)[C@@H](O)[C@@H](O)[C@@H]1O)OC(=O)CCCCCCC/C=C\CCCCCCCC.[Na+].[Na+].[Na+].[Na+].[Na+] (stereo partly drawn) [VI, reference compound]
[3]; Anti-B (ABO2) Diagast
  Serology score: 0
[3]; Anti-B ALBAclone
  Serology score: 0
[3]; Anti-B Biotec
  Serology score: 0
[3]; Anti-B CSL Epiclone
  Serology score: 0
[3]; Anti-B CSL
  Serology score: 0
[3]; Anti-B Diagast
  Serology score: 0
[3]; Anti-B Diagnostics Scotland
  Serology score: 0
[3]; Anti-B Dominion (Novaclone)
  Serology score: 0
[3]; Anti-B Gama
  Serology score: 0
[3]; Anti-B Immucor
  Serology score: 0
[3]; Anti-B Millipore
  Serology score: 0
[3]; Anti-B Ortho-BioClone
  Serology score: 0
[3]; Anti-B Ortho-MoltenClone
  Serology score: 0
[3]; Anti-B Span
  Serology score: 0
[3]; Anti-B ortho
  Serology score: 0

Source: patent US20140004499A1, “BIOSURFACE ENGINEERING” (priority 2011, published 2014)
